The text below walks through data of patent publication EP0130554A1, “Novel, physiologically active substance, process for production thereof and pharmaceutical composition containing the same” (KYOWA HAKKO KOGYO CO., LTD., priority 1983, dated 1985).

For data set [1], the system named is Atria. The experiment in a line: Inhibition of isoproterenol-induced positive chronotropic effect in spontaneously beating isolated atria (organ bath). As to conditions: Cavia porcellus, 0.5 h; MY336-a 30 µg/ml, added 30 minutes before isoproterenol hydrochloride 10^-9 g/ml; atrial rate, isolated guinea pig atria; read-out: blocked the positive chronotropic effect induced by isoproterenol hydrochloride. The class given is cell-based, guinea pigs. The protocol: Method: • Atria were rapidly isolated from guinea pigs (body weight: 500 - 700G) and mounted in an organ bath. The bath was filled with 30 ml oxygenated (95% 02, 5% C02) Krebs-Henseleit's solution at 31il°C. Atria were allowed to beat spontaneously and the contractions were isometrically recorded using force- displacement transducers. Resting force was adjusted to 0.5g. Then, atrial rate was measured. Then, a solution of isoproterenol hydrochloride in a very small amount of water was added thereto to make the isoproterenol hydrochloride concentration to be 10-^9 g/ml, and atrial rate was measured.
The solution was discarded and the bath was filled with krebs-Henseleit's solution, and allowed to stand until the atrial rate was brought back.
Then, a solution of MY336-a in a very small amount of 50% ethanol was added thereto to make the MY336-a concentration to be 30 µg/ml, and 30 minutes thereafter, a solution of isoproterenol hydrochloride in a very small amount of water was added thereto to make the isoproterenol hydrochloride concentration to be 10-^9 g/ml, and atrial rate was measured.

A short description of data set [2]: Solubility in various solvents. The class given is physicochemical.
Data set [3] relates to adrenergic receptor. The experiment in a line: Agonistic/antagonistic activity on adrenergic receptor.

The structures appear in SMILES notation.

For the compound `COc1c(C)cc2c(c1O)C(CO)NC(CO)C2` (stereo not drawn) [MY336-a], the inhibition at 30 µg/mL in data set [1] stood at 84.9%. The Solubility entry in data set [2] (in acetone, hexane and ether) is on record as “sparingly soluble”; in data set [2] (in acidic water) it was “readily soluble”; in data set [2] (in water and methanol), “soluble”. Besides, the “agonistic activity on adrenergic receptor” value in data set [3] is given as “no agonistic activity”. The “antagonistic activity on adrenergic receptor” value in data set [3] is reported as “has an antagonistic activity”.
